According to patent US20050032908A1, “Methods for treating metabolic syndrome” (priority 2003, published 2005):
Read-outs that look alike come from different tables or passages of the source.

Assays:
[1] = Pooled analysis of double-blind, placebo-controlled, non-diabetic studies of at least 6 months duration in subjects with metabolic syndrome at baseline; format: in vivo, human; conditions: compared to placebo; change from baseline to latest assessment after month 6 up to month 12
Excerpt: (§1) The benefits of sibutramine therapy can be extended to subjects with metabolic syndrome. The treatment effect of sibutramine on subjects that had metabolic syndrome at study entry in the STORM trial and by a pooled analysis of double-blind, placebo-controlled, non-diabetic studies of at least 6 months duration were studied. Subjects were identified who had increased abdominal obesity (waist circumference), decreased HDL cholesterol, and elevated triglycerides (TG) at baseline, and who also completed at least 6 months of sibutramine treatment (pooled analysis subjects: 266 sibutramine, 134 placebo; STORM: 80 sibutramine). Since all subjects in the STORM trial received sibutramine for the first 6 months of the study, only subjects subsequently randomized to receive sibutramine for a longer duration were included. The analyses for each variable were based on change from baseline to latest assessment after month 6, up to and including month 12.

[2] = STORM trial subjects that had metabolic syndrome at study entry; format: in vivo, human; conditions: sibutramine treatment group, 80 subjects; change from baseline to latest assessment after month 6 up to month 12
Excerpt: as §1

[3] = compared to placebo; cited from earlier work
[4] = cited from earlier work
[5] = subjects who lost and maintained weight, compared to the baseline values of all subjects

## CC(C)CC(N(C)C)C1(c2ccc(Cl)cc2)CCC1 (centres unmarked) [sibutramine, N,N-dimethyl-1-[1-(4-chlorophenyl)cyclobutyl]-3-methylbutylamine]
[1]
  HDL: clinically and statistically significant improvements
  TG: clinically and statistically significant improvements
  waist circumference: clinically and statistically significant improvements
  weight loss: clinically and statistically significant improvements
[2]
  HDL: favorable changes
  TG: favorable changes
  waist circumference: favorable changes
  weight loss: favorable changes
[3]
  HDL cholesterol: significant improvements
  fasting blood glucose levels: not significantly changed
  insulin levels: significant improvements
  triglyceride levels: significant improvements
  waist circumference (a measure for abdominal obesity): significant improvements
[4]; at the end of two years of treatment, placebo 21%
  subjects who maintained ≧10% weight reduction: 46%
[4]; at the end of two years of treatment, placebo 44%
  subjects who maintained ≧5% weight reduction: 69%
[4]; at two years
  mean fasting insulin levels: reduced
[4]; at two years, placebo 16%
  subjects who completed the trial and maintained at least 80% of their month six weight loss: 43%
[4]; first six months, subjects achieving ≧5% weight reduction
  mean weight loss: 26 lbs
[4]; of the 499 subjects who completed the first six months, sibutramine with reduced calorie diet and increased physical activity
  subjects who achieved a ≧5% weight reduction: 94%
[4]; [5]
  HDL cholesterol: clinically and statistically significant improvements
  triglycerides: clinically and statistically significant improvements
  waist circumference: clinically and statistically significant improvements
[4]; two years
  impaired fasting glucose: significantly changed
